{"source": "PubChem BioAssay AID2060908", "about": "(Molecular Pharmacology Branch, DTP, NCI, 2025);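 further: spheroids exposed to compounds for 7 days before viability read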", "tested_on": "186277-243-T-J2-PDC complex spheroids, viability", "assay": "Anticancer human tumor 186277-243-T-J2-PDC patient-derived colon adenocarcinoma cell line growth inhibition [RAS]", "conditions": "for IC50: curve of first compound; for viability, T/C: stronger effect = lower value", "text": "RAS pathway inhibitors in Combinations in Complex Spheroids\nA high-throughput screen of multi-cell type tumor spheroids was designed to identify active combinations of RAS pathway inhibitors and targeted small molecules. Complex spheroids include a stromal component modeled by human endothelial cells (HUVEC) and fibroblasts modeled by human mesenchymal stem cells (MSCs). The concentration ranges selected for each drug and investigational agent were based upon clinically achievable concentrations if the clinical Cmax of the agent was known.\nCompounds. The drugs and investigational agents: abemaciclib (NSC768073), cobimetinib (NSC768068), divarasib (GDC6063, NSC841802), docetaxel (NSC628503), GDC-1971 (RLY-1971, NSC841576), gemcitabine (NSC613327), inavolisib (NSC800729), ipatasertib (NSC767898), KB-0742 (NSC834161), MRTX-1133 (NSC836407), osimertinib (NSC779217), RMC-4630 (NSC839698), RMC-6236 (NSC851965), RMC-6291 (NSC852671), Ro-3306 (NSC812927), sapanisertib (NSC764658), SN-38 (NSC673596), staurosporine (NSC755774), SY5609 (NSC837396), and tovorafenib (DAY101, NSC766906), were obtained from the National Cancer Institute (NCI) Developmental Therapeutics Program Chemical Repository. The FDA-approved anticancer drug set is available from the NCI Developmental Therapeutics Program. […] The stock solutions were prepared in dimethyl sulfoxide (DMSO, Sigma-Aldrich, St. Louis, MO, cat. D2650) at 800-fold the tested concentration and stored at -70 degrees C prior to their use. All drugs and investigational agents were tested over a range starting from a high concentration at or near the clinical Cmax and decreasing in half-log increments. If the clinical Cmax for an agent had not been determined, the highest concentration tested was 10 microM.\nCell Culture. All cells were maintained in an incubator at 37 degrees C and 5% CO2 with 95% humidity. The PDC lines were cultured according to standard operating procedures established by the NCI PDMR. All PDCs were thawed and cultured in Matrigel-coated flasks prepared with a working solution of 1X Ham's F-12 nutrient mix, without supplementation (Invitrogen, Waltham, MA, cat. 11765054), 100 U/mL penicillin-streptomycin (Invitrogen, cat. 15140122), and 2.5% Matrigel (Corning Inc., Corning, NY, cat. 354248) for the first three passages. The 362531-283-R-J2-PDC and 782815-120-R-J1-PDC lines were cultured in 6C/Colon 1B media, which includes advanced DMEM/F-12 (Thermo Fisher Scientific, cat. 12634028), 10 mM HEPES (Thermo Fisher Scientific, cat. 15630080), 1X GlutaMAX supplement (Thermo Fisher Scientific, cat. 35050061), 0.1 mg/mL primocin (InvivoGen, San Diego, CA, cat. ant-pm-2), 10% defined fetal bovine serum, heat inactivated (HyClone Laboratories Inc., Logan, UT, cat. SH30070.03HI), 50% L-WRN conditioned media (ATCC, cat. CRL-3276), 1.25 mM N-Acetyl-L-cysteine (Sigma-Aldrich, cat. A9165), 10 mM nicotinamide (Sigma-Aldrich, cat. N0636), 1X B-27 supplement (Thermo Fisher Scientific, cat. 17504044), 1X N-2 supplement (Thermo Fisher Scientific, cat. 17502048), 50 ng/mL human EGF (Thermo Fisher Scientific, cat. PHG0311), and 10 microM Y-27632 dihydrochloride (Tocris Bioscience, cat. 1254). The K12877-001-R-J1-PDC line was cultured in 6I media, which includes all 6C/Colon 1B media plus 10 ng/mL human FGF-10 (PeproTech, cat. 100-26), 1 ng/mL human FGF-2 (PeproTech, cat. 100-18B), 1 µM prostaglandin E2 (Tocris Bioscience, cat. 2296), […] hydrocortisone (Sigma-Aldrich, cat. H4001), and […] bovine insulin (Sigma-Aldrich, cat. I6634). The K86415-001-R-J1-PDC line was cultured in 6D media, which includes all 6C/Colon 1B media components minus the L-WRN conditioned media. The 485176-168-R4-J1-PDC was cultured in PANC media, which includes all 6C/Colon 1B media plus 100 ng/mL human FGF-10 (PeproTech, cat. 100-26), 500 nM SB-431542 (Selleckchem, cat. S1067), and 10 nM gastrin (Tocris Bioscience, cat. 3006). […]", "data": [{"smiles": "C[C@@H](NC(=O)c1ncnc(N)c1Cl)c1ncc(C(=O)Nc2cc(C(F)(F)F)c(Cl)cn2)s1", "note": "+ C#Cc1c(F)ccc2cc(O)cc(-c3ncc4c(N5CC6CCC(C5)N6)nc(OCC56CCCN5CC(F)C6)nc4c3F)c12", "values": [{"measurement": "IC50", "setting": "second compound 0.0316 µM", "value": 9.76, "unit": "µM"}, {"measurement": "IC50", "setting": "second compound 0.1 µM", "value": 4.17, "unit": "µM"}, {"measurement": "IC50", "setting": "second compound 0.316 µM", "value": "< 0.0316", "unit": "µM"}, {"measurement": "IC50", "setting": "second compound 1 µM", "value": "< 0.0316", "unit": "µM"}, {"measurement": "IC50", "setting": "second compound 3.16 µM", "value": "< 0.0316", "unit": "µM"}, {"measurement": "IC50", "setting": "second compound 10 µM", "value": "< 0.0316", "unit": "µM"}, {"measurement": "viability, T/C", "setting": "second compound 0.0316 µM, first compound 0.0316 µM", "value": 104, "unit": "%"}, {"measurement": "viability, T/C", "setting": "second compound 0.0316 µM, first compound 0.1 µM", "value": 98.5, "unit": "%"}, {"measurement": "viability, T/C", "setting": "second compound 0.0316 µM, first compound 0.316 µM", "value": 90.6, "unit": "%"}, {"measurement": "viability, T/C", "setting": "second compound 0.0316 µM, first compound 1 µM", "value": 91.7, "unit": "%"}, {"measurement": "viability, T/C", "setting": "second compound 0.0316 µM, first compound 3.16 µM", "value": 76.1, "unit": "%"}, {"measurement": "viability, T/C", "setting": "second compound 0.0316 µM, first compound 10 µM", "value": 48.8, "unit": "%"}, {"measurement": "viability, T/C", "setting": "second compound 0.1 µM, first compound 0.0316 µM", "value": 77.2, "unit": "%"}, {"measurement": "viability, T/C", "setting": "second compound 0.1 µM, first compound 0.1 µM", "value": 69.5, "unit": "%"}, {"measurement": "viability, T/C", "setting": "second compound 0.1 µM, first compound 0.316 µM", "value": 62.1, "unit": "%"}, {"measurement": "viability, T/C", "setting": "second compound 0.1 µM, first compound 1 µM", "value": 61.3, "unit": "%"}, {"measurement": "viability, T/C", "setting": "second compound 0.1 µM, first compound 3.16 µM", "value": 60.8, "unit": "%"}, {"measurement": "viability, T/C", "setting": "second compound 0.1 µM, first compound 10 µM", "value": 26.7, "unit": "%"}, {"measurement": "viability, T/C", "setting": "second compound 0.316 µM, first compound 0.0316 µM", "value": 36.3, "unit": "%"}, {"measurement": "viability, T/C", "setting": "second compound 0.316 µM, first compound 0.1 µM", "value": 49.8, "unit": "%"}, {"measurement": "viability, T/C", "setting": "second compound 0.316 µM, first compound 0.316 µM", "value": 38.5, "unit": "%"}, {"measurement": "viability, T/C", "setting": "second compound 0.316 µM, first compound 1 µM", "value": 36, "unit": "%"}, {"measurement": "viability, T/C", "setting": "second compound 0.316 µM, first compound 3.16 µM", "value": 23.7, "unit": "%"}, {"measurement": "viability, T/C", "setting": "second compound 0.316 µM, first compound 10 µM", "value": 14.4, "unit": "%"}, {"measurement": "viability, T/C", "setting": "second compound 1 µM, first compound 0.0316 µM", "value": 20.9, "unit": "%"}, {"measurement": "viability, T/C", "setting": "second compound 1 µM, first compound 0.1 µM", "value": 23.9, "unit": "%"}, {"measurement": "viability, T/C", "setting": "second compound 1 µM, first compound 0.316 µM", "value": 22.7, "unit": "%"}, {"measurement": "viability, T/C", "setting": "second compound 1 µM, first compound 1 µM", "value": 22.3, "unit": "%"}, {"measurement": "viability, T/C", "setting": "second compound 1 µM, first compound 3.16 µM", "value": 18.8, "unit": "%"}, {"measurement": "viability, T/C", "setting": "second compound 1 µM, first compound 10 µM", "value": 11.1, "unit": "%"}, {"measurement": "viability, T/C", "setting": "second compound 3.16 µM, first compound 0.0316 µM", "value": 15.4, "unit": "%"}, {"measurement": "viability, T/C", "setting": "second compound 3.16 µM, first compound 0.1 µM", "value": 17.6, "unit": "%"}, {"measurement": "viability, T/C", "setting": "second compound 3.16 µM, first compound 0.316 µM", "value": 15.1, "unit": "%"}, {"measurement": "viability, T/C", "setting": "second compound 3.16 µM, first compound 1 µM", "value": 15.4, "unit": "%"}, {"measurement": "viability, T/C", "setting": "second compound 3.16 µM, first compound 3.16 µM", "value": 10.9, "unit": "%"}, {"measurement": "viability, T/C", "setting": "second compound 3.16 µM, first compound 10 µM", "value": 8.51, "unit": "%"}, {"measurement": "viability, T/C", "setting": "second compound 10 µM, first compound 0.0316 µM", "value": 9.89, "unit": "%"}, {"measurement": "viability, T/C", "setting": "second compound 10 µM, first compound 0.1 µM", "value": 10.8, "unit": "%"}, {"measurement": "viability, T/C", "setting": "second compound 10 µM, first compound 0.316 µM", "value": 14, "unit": "%"}, {"measurement": "viability, T/C", "setting": "second compound 10 µM, first compound 1 µM", "value": 12.8, "unit": "%"}, {"measurement": "viability, T/C", "setting": "second compound 10 µM, first compound 3.16 µM", "value": 8, "unit": "%"}, {"measurement": "viability, T/C", "setting": "second compound 10 µM, first compound 10 µM", "value": 8.5, "unit": "%"}]}]}
